One data set relates to normal adult mice. The data set can be described thus: Spatial reference memory task in the water maze. It counts as in vivo. The protocol: (§1) For the compound treatment, mice (8 animals/group) received subcutaneous implants of extended release depot pellets containing P21 or P22 at 25 nmol/day for 35 days of continuous dosing (Innovative Research of America, USA). For the control group (8 animals), pellets consisted of the carrier polymer only. Mice were anesthetized with 2.5% Avertin (0.38 ml for a 25 g animal). Under sterile conditions, pellets were implanted subcutaneously along the anterolateral aspect of the right shoulder with a precision trochar (Innovative Research of America). After recovery of anesthesia, animals were transferred to the animal colony. No complications associated with the implantation and treatment were observed. All procedures on animals were conducted in accordance with approved protocols from our Institutional Animal Welfare Committee.
Spatial reference learning and memory were evaluated in the water maze using a procedure adapted from that previously described by Morris et al. (Morris, R. G., et al. Nature 297 (1982): 681-3). The test required that mice used a spatial navigational strategy based on a spatial representation of the environment to find a fixed submerged escape platform. The procedure was performed in a 180 cm diameter circular tank. The pool was filled with water (21±1° C.) made opaque by adding white non-toxic paint. Acquisition started with the escape platform (15 cm diameter submerged 1 cm below water surface) in the Northwest quadrant and each animal was given 90 s to find the platform. […] At the end of each trial, the mouse was left on the platform for 20 seconds, then dried and returned to its home cage until the next trial. Five such acquisition trials were given on each day for four consecutive days. A test for retention, or probe trial (PT), was given 24 hours later. During the probe trial the mouse was allowed to swim in the tank without the escape platform for 60 seconds. This was followed by second and third probe trials 15 and 30 days after the first probe trial.
The measures of learning were the time and distance covered to reach the escape platform. For the probe trial, the tank was divided into four imaginary quadrants and a small zone where the escape platform had been. The measure of retention was calculated as the ratio of time spent or distance covered in target quadrant over that in the three other quadrants.
Mouse behavior in the water maze was monitored by a Samsung Digital Camera (SDC 4304) mounted to the ceiling and tracked and timed by a SMART (Pan Lab/San Diego Instruments) version 2.0.14 software.

For data set [1], the system named is adult hippocampal progenitors in the dentate gyrus. The data set can be described thus: Neurogenesis in the DG (BrdU-positive and BrdU/NeuN-double-positive cells). The note with it: 25 nmol/day for 35 days. The class given is in vivo, mice. The protocol: as §1
To investigate neurogenesis, BrdU (Sigma, USA) was given as two daily i.p. injections (100 mg/kg/dose) for five days starting on day 2 of compounds treatment.
At the end of the behavioral experiment, animals were anesthetized with an overdose of sodium pentobarbital (120 mg/kg) and transcardially perfused with 0.1 M phosphate buffered saline (PBS). After perfusion, the brains were removed from the skull, the left hemisphere was immediately frozen for future biochemical analysis and the right hemisphere was immersion fixed in 4% paraformaldehyde in 0.1 M PBS for at least 24 hours at room temperature. Tissues were equilibrated and stored in 30% sucrose solution at 4° C. until sectioning. The brains were sectioned sagittaly on a freezing sliding microtome at 40 μm through the entire hippocampus and the sections were stored in glycol anti-freeze solution (Ethylene glycol, glycerol and 0.1 M PBS in 3:3:4 ratio) at −20° C. until further processing.
For double labeling of BrdU and NeuN, brain sections were pretreated with 2 M HCl at 37° C. for 30 min and neutralized with 0.1 M borate buffer (pH 8.5) for 10 minutes. […]
Neurogenesis in the dentate gyrus was evaluated by counting the number of BrdU-positive and BrdU/NeuN-double-positive cells in the dentate gyrus (DG). The number of positive cells was determined in every fifth section in a series of 40 μm sagittal sections throughout the DG using unbiased sterology. All BrdU-positive cells in the subgranular zone (SGZ) and granule cell layer (GCL) were counted using a fluorescent microscope (Nikon Eclipse 90i, Nikon Corporation, Japan). Double labeled cells were assessed by a confocal imaging system (D-Eclipse C1, Nikon Corporation). […] For each brain, at least 100 cells were counted based on coefficient of error determinations.

A short description of data set [2]: General examination (physical state, body weight, exploratory activity, swim speed, floating). It counts as in vivo, mice. The note with it: 25 nmol/day for 35 days.

Entries after “also recorded” stand apart in the source; their conditions may differ. Peptide text beside a SMILES is read from it. * marks the point of attachment. X1 = NC(=O)C12CC3CC(CC(N*)(C3)C1)C2

In the case of `CC(=O)N[C@@H](CC(=O)O)C(=O)NCC(=O)NCC(=O)N[C@@H](CC(C)C)C(=O)NC12CC3CC(C1)CC(C(N)=O)(C3)C2` [Peptide P21, Ac-DGGL^AG-NH2] (Ac-DGGL-X1), in the data set on normal adult mice (15 and 30 days after the end of the treatment), the “time in the target quadrant, probe trials PT2 and PT3” value is on record as “beneficial effect disappeared; also recorded: showed no effect”. Moreover, the “time in the target quadrant, first probe trial” value in the data set with normal adult mice (24 hours after last day of training) is “focus significantly more on the target quadrant; also recorded: improved performance in the first probe trial”. Moreover, the “escape latencies to reach the submerged platform (learning)” value in the data set on normal adult mice (training day 2 to 4, compared to control group) was “significantly reduced; also recorded: increased performance in the learning of spatial memory task”. Further, in data set [1], the “BrdU positive cells in the DG (GCL and SGZ)” value is “significantly increased; also recorded: significant increase”; the “BrdU/NeuN positive cells in the DG (GCL)” value was “significantly increased; also recorded: significant increase”. The “floating behavior in the water maze task (sign of depression or locomotor impairment)” value in data set [2] was “no floating behavior was observed”. For the same compound, the swim speed entry in data set [2] (water maze) is “no alteration; also recorded: did not induce any effect”.

Values taken from patent US8592374B2, “Neurotrophic peptides” (Research Foundation for Mental Hygiene, Inc., priority 2007, dated 2013).
